As a reminder, the IC50 is the concentration at which inhibition is half-maximal.

The values below come from patent publication US20090247559A1 (Exelixis, Inc., priority 2007, published 2009).

In assay [1] the target is PIM (PIM-1, PIM-2, and/or PIM-3). As to the kind of experiment: PIM-1, PIM-2 and PIM-3 inhibition, biochemical chemiluminescence assays (Kinase Glo, IC50 determination). As to conditions: Table 1 activity class; PIM refers to PIM-1, PIM-2, and/or PIM-3; read-out: PIM IC50 (Activity B). A general note: Kinase-Glo measures the ATP left after a reaction by luminescence.
The next assay deals with CK2 (Homo sapiens, UniProt P68400). As to the kind of experiment: CK2 inhibition, biochemical chemiluminescence holoenzyme assay (Kinase Glo, IC50 determination). The note with it: Table 1 activity class; symbol given only if active; read-out: CK2 IC50 (Activity C). In a few lines:
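Holoenzyme CK2 assay; compounds pre-incubated with substrate and enzyme, then reacted 150 min at 24-27° C. Remaining ATP measured as luminescence with Kinase Glo, and IC50 derived from the signal.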

A further assay deals with CDC7 (Homo sapiens, UniProt O00311). As to the kind of experiment: CDC7 inhibition, biochemical chemiluminescence assay (Kinase Glo, IC50 determination). The method, then: Characterization of CDC7 Inhibition in a Biochemical Chemiluminesence Assay (IC50 Determination):
The IC50 evaluation of compounds against the CDC7 enzyme was performed in a Chemiluminesence assay utilizing a Greiner 384-well white binding plate format. […] Upon addition of 10 μL of CDC-7 (GB) to the designated well plates and subsequent incubation for ten minutes at ambient temperature, 10 μL of ATP mix in Tris Base was added. Following an incubation period of 90 minutes at ambient temperature (24-27° C.), 20 μL of Kinase Glo (Promega) was added to measure kinase activity by quantitating the amount of ATP remaining in solution. The luminescence was measured following a Luciferase Protocol on either EnVision or Victor plate readers.

The mark [2] stands for this setting: Table 1 activity class, symbol given only if active, read-out: CDC7 IC50 (Activity A).
[3] abbreviates: compounds in Table 1, read-out: CDC7 IC50 value.

Where a name gives a salt, the structure may show the parent alone. Read-outs that look alike come from different tables or passages of the source. Bounds are passed on as bounds.

CK2, sequence (P68400 whole entry): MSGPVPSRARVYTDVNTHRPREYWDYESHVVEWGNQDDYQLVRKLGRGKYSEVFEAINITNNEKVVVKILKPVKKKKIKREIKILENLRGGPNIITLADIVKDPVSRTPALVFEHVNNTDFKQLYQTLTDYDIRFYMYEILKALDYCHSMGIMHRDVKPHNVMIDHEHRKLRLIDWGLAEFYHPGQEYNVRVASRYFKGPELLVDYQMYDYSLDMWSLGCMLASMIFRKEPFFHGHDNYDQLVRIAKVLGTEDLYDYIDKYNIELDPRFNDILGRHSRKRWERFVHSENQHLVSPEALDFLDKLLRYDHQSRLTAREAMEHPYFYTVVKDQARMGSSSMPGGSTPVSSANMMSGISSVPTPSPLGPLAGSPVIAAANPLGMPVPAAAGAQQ
CK2, sequence (P67870 whole entry partner): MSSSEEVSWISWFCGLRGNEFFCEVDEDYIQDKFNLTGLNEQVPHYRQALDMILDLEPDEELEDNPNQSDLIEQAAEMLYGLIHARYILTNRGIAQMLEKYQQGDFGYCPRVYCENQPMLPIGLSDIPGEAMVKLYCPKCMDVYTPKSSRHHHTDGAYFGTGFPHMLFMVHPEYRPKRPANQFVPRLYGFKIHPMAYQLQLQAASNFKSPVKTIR
CDC7, sequence (O00311 whole entry): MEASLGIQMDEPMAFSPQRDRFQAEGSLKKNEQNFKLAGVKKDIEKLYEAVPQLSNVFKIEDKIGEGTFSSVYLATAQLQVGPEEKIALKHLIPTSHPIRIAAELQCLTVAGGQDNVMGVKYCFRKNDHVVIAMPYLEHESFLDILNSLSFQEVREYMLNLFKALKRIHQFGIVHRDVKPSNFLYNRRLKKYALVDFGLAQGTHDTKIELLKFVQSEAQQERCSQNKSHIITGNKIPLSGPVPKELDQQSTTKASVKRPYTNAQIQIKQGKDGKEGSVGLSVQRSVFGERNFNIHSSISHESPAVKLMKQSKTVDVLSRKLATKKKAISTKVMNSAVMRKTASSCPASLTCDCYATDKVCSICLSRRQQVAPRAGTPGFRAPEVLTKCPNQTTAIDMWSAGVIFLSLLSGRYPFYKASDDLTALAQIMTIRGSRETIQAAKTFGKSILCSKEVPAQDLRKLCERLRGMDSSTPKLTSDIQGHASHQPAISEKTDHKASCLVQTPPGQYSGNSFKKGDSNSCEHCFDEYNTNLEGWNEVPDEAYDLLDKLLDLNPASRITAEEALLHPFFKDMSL
CDC7, sequence (Q9UBU7 whole entry partner): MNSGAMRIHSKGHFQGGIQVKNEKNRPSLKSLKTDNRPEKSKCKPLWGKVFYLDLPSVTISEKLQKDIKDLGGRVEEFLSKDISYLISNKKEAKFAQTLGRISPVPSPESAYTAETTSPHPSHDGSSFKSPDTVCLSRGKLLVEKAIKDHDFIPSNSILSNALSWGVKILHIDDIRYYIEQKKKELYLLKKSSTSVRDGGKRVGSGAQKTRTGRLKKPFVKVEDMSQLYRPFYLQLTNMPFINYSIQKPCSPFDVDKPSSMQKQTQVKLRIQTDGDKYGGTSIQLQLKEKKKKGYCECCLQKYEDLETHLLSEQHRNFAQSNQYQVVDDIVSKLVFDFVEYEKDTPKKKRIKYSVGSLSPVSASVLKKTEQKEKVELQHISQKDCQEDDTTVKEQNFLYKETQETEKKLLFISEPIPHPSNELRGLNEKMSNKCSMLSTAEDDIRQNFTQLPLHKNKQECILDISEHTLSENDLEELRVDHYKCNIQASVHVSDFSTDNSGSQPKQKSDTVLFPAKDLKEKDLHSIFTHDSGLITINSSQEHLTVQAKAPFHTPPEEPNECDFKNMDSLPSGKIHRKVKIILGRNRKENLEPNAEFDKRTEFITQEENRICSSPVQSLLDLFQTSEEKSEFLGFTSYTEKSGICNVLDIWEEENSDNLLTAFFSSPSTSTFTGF

As for `NC(=O)C1CCN(Cc2nc3c(oc4ccc(Br)cc43)c(=O)[nH]2)C1` (stereo not drawn) [Compound 270, 1-[(8-bromo-4-oxo-3,4-dihydro[1]benzofuro[3,2-d]pyrimidin-2-yl)methyl]pyrrolidine-3-carboxamide], the IC50 in assay [1] is below 10 µM; on CK2, below 10 µM; at CDC7 (setting [2]), below 10 µM; on CDC7 (setting [3]), below 0.1 µM.

As for `O=C(NCc1cccc(Cl)c1)C1CCN(Cc2nc3c(oc4ccc(Br)cc43)c(=O)[nH]2)C1` (stereo not drawn) [Compound 264, 1-[(8-bromo-4-oxo-3,4-dihydro[1]benzofuro[3,2-d]pyrimidin-2-yl)methyl]-N-[(3-chlorophenyl)methyl]pyrrolidine-3-carboxamide], the 50% inhibitory concentration (IC50) (in assay [1]; at CK2; on CDC7 (setting [2])) was below 10 µM throughout.

In the case of `O=c1[nH]c(-c2ccncc2Cl)nc2c1oc1ccc(Br)cc12` [Compound 112, 8-bromo-2-(3-chloropyridin-4-yl)[1]benzofuro[3,2-d]pyrimidin-4(3H)-one], the IC50 (in assay [1]; on CK2; at CDC7 (setting [2])) was below 10 µM throughout.

Regarding `CN(C)CC(=O)Nc1ccc(-c2nc3c(oc4ccc(Br)cc43)c(=O)[nH]2)c(Cl)c1` [Compound 127, N-[4-(8-bromo-4-oxo-3,4-dihydro[1]benzofuro[3,2-d]pyrimidin-2-yl)-3-chlorophenyl]-N′2′,N′2′-dimethylglycinamide], the IC50 (in assay [1]; on CK2; at CDC7 (setting [2])) was below 10 µM throughout.

For the compound `O=c1[nH]c(C2CCCCN2)nc2c1oc1ccc(Br)cc12` (stereo not drawn) [Compound 534, 8-Bromo-2-piperidin-2-yl[1]benzofuro[3,2-d]pyrimidin-4(3H)-one hydrochloride], the IC50 in assay [1] was below 10 µM; at CK2, below 10 µM; on CDC7 (setting [2]), below 10 µM; at CDC7 (setting [3]), below 0.1 µM.

For the compound `O=C(Nc1ccc(-c2nc3c(oc4ccc(Br)cc43)c(=O)[nH]2)c(Cl)c1)C1CCCNC1` (stereo not drawn) [Compound 140, N-[4-(8-bromo-4-oxo-3,4-dihydro[1]benzofuro[3,2-d]pyrimidin-2-yl)-3-chlorophenyl]piperidine-3-carboxamide], the IC50 (in assay [1]; at CK2; at CDC7 (setting [2])) was below 10 µM throughout.

In the case of `CC1(O)CCN(Cc2nc3c(oc4ccc(Br)cc43)c(=O)[nH]2)C1` (stereo not drawn) [Compound 346, 8-bromo-2-[(3-hydroxy-3-methylpyrrolidin-1-yl)methyl][1]benzofuro[3,2-d]pyrimidin-4(3H)-one], the IC50 in assay [1] was below 10 µM; at CK2, below 10 µM; at CDC7 (setting [2]) it was below 10 µM; on CDC7 (setting [3]), below 0.1 µM.

Turning to `Cc1ccc2oc3c(=O)[nH]c(CN4CC[C@H](O)C4)nc3c2c1N` [Compound 440, 9-amino-2-{[(3S)-3-hydroxypyrrolidin-1-yl]methyl}-8-methyl[1]benzofuro[3,2-d]pyrimidin-4(3H)-one], the IC50 (in assay [1]; at CK2; on CDC7 (setting [2])) was below 10 µM each time.

`CC(C)NCc1ccc(-c2nc3c(oc4ccc(Br)cc43)c(=O)[nH]2)c(Cl)c1` [Compound 430, 8-bromo-2-(2-chloro-4-{[(1-methylethyl)amino]methyl}phenyl)[1]benzofuro[3,2-d]pyrimidin-4(3H)-one]: the IC50 (in assay [1]; on CK2; on CDC7 (setting [2])) was below 10 µM in each case.

Regarding `O=C(NCc1ccccc1Cl)C1CCN(Cc2nc3c(oc4ccc(Br)cc43)c(=O)[nH]2)C1` (stereo not drawn) [Compound 224, 1-[(8-bromo-4-oxo-3,4-dihydro[1]benzofuro[3,2-d]pyrimidin-2-yl)methyl]-N-[(2-chlorophenyl)methyl]pyrrolidine-3-carboxamide], the IC50 (in assay [1]; on CK2; on CDC7 (setting [2])) was below 10 µM in each case.

In the case of `O=c1[nH]c(CN2CCCC2)nc2c1oc1ccc(Cl)cc12` [Compound 5, 8-chloro-2-(pyrrolidin-1-ylmethyl)[1]benzofuro[3,2-d]pyrimidin-4(3H)-one], the IC50 in assay [1] was below 10 µM; at CK2, below 10 µM; at CDC7 (setting [2]), below 10 µM; at CDC7 (setting [3]), below 0.1 µM.

Consider `CN(C)C(=O)CN1CCN(Cc2nc3c(oc4ccc(Br)cc43)c(=O)[nH]2)CC1` [Compound 25, 2-{4-[(8-bromo-4-oxo-3,4-dihydro[1]benzofuro[3,2-d]pyrimidin-2-yl)methyl]piperazin-1-yl}-N,N-dimethylacetamide], for which the IC50 (in assay [1]; at CK2; on CDC7 (setting [2])) was below 10 µM each time.

In the case of `COc1ccc(C(=O)Nc2ccc(-c3nc4c(oc5ccc(Br)cc54)c(=O)[nH]3)c(Cl)c2)cn1` [Compound 343, N-[4-(8-bromo-4-oxo-3,4-dihydro[1]benzofuro[3,2-d]pyrimidin-2-yl)-3-chlorophenyl]-6-(methyloxy)pyridine-3-carboxamide], the IC50 (in assay [1]; on CK2; at CDC7 (setting [2])) was below 10 µM each time.

As to `O=C(Nc1ccc(-c2nc3c(oc4ccc(Br)cc43)c(=O)[nH]2)c(Cl)c1)C1CCNCC1` [Compound 161, N-[4-(8-bromo-4-oxo-3,4-dihydro[1]benzofuro[3,2-d]pyrimidin-2-yl)-3-chlorophenyl]piperidine-4-carboxamide], the IC50 (in assay [1]; at CK2; on CDC7 (setting [2])) was below 10 µM in each case.

For `O=C(Nc1ccc(-c2nc3c(oc4ccc(Br)cc43)c(=O)[nH]2)c(Cl)c1)c1ccno1` [Compound 324, N-[4-(8-bromo-4-oxo-3,4-dihydro[1]benzofuro[3,2-d]pyrimidin-2-yl)-3-chlorophenyl]isoxazole-5-carboxamide], the IC50 (in assay [1]; on CK2; on CDC7 (setting [2])) was below 10 µM throughout.

As to `O=c1[nH]c(CNCCc2c[nH]cn2)nc2c1oc1ccc(Br)cc12` [Compound 259, 8-bromo-2-({[2-(1H-imidazol-4-yl)ethyl]amino}methyl)[1]benzofuro[3,2-d]pyrimidin-4(3H)-one], the IC50 is below 10 µM in assay [1], below 10 µM on CK2, below 10 µM at CDC7 (setting [2]) and below 0.1 µM at CDC7 (setting [3]).

For `C[C@H](O)c1nc2c(oc3ccc(Br)cc32)c(=O)[nH]1` [Compound 497, 8-bromo-2-[(1S)-1-hydroxyethyl][1]benzofuro[3,2-d]pyrimidin-4(3H)-one], the half-inhibitory concentration (IC50) (in assay [1]; at CK2; on CDC7 (setting [2])) was below 10 µM throughout.

Take `COCCNCc1nc2c(oc3ccc(Br)cc32)c(=O)[nH]1` [Compound 277, 8-bromo-2-({[2-(methyloxy)ethyl]amino}methyl)[1]benzofuro[3,2-d]pyrimidin-4(3H)-one]: the IC50 was below 10 µM in assay [1], below 10 µM at CK2, below 10 µM on CDC7 (setting [2]) and below 0.1 µM at CDC7 (setting [3]).

With `O=c1[nH]c(C2CNCCO2)nc2c1oc1ccc(Br)cc12` (stereo not drawn) [Compound 298, 8-Bromo-2-morpholin-2-yl[1]benzofuro[3,2-d]pyrimidin-4(3H)-one], the values for the IC50 at CK2, on CDC7 (setting [2]) and on CDC7 (setting [3]) were below 10 µM, below 10 µM and below 0.1 µM, respectively.

For the compound `O=c1[nH]c(Cc2ccccc2Br)nc2c1oc1ccc(Br)cc12` [Compound 421, 8-bromo-2-[(2-bromophenyl)methyl][1]benzofuro[3,2-d]pyrimidin-4(3H)one], the half-maximal inhibitory concentration (IC50) in assay [1] is below 10 µM; on CDC7 (setting [2]), below 10 µM; on CDC7 (setting [3]) it was below 0.1 µM.

`O=c1[nH]c(CNCCN2CCCCC2)nc2c1oc1ccc(Br)cc12` [Compound 431, 8-bromo-2-{[(2-piperidin-1-ylethyl)amino]methyl}[1]benzofuro[3,2-d]pyrimidin-4(3H)-one]: the IC50 (in assay [1]; on CDC7 (setting [2])) was below 10 µM in each case.

With `O=c1[nH]c([C@@H]2CC(F)(F)CN2)nc2c1oc1ccc(Cl)cc12` [Compound 524, 8-chloro-2-[(2S)-4,4-difluoropyrrolidin-2-yl][1]benzofuro[3,2-d]pyrimidin-4(3H)-one], the IC50 in assay [1] is below 10 µM; at CDC7 (setting [2]), below 10 µM; at CDC7 (setting [3]), below 0.1 µM.

As to `O=c1[nH]c(-c2ccc(NCC3CCCNC3)cc2Cl)nc2c1oc1ccc(Br)cc12` (stereo not drawn) [Cpd 159, 8-bromo-2-{2-chloro-4-[(piperidin-3-ylmethyl)amino]phenyl}[1]benzofuro[3,2-d]pyrimidin-4(3H)-one], the half-inhibitory concentration (IC50) on CK2 and at CDC7 (setting [2]) was below 10 µM in each case.

Consider `NC1(c2nc3c(oc4ccc(Br)cc43)c(=O)[nH]2)CCCCC1` [Compound 542, 2-(1-aminocyclohexyl)-8-bromo[1]benzofuro[3,2-d]pyrimidin-4(3H)-one], for which the concentration for half-maximal inhibition (IC50) was below 10 µM at CK2; below 10 µM at CDC7 (CDC7 IC50 (Activity A), Table 1 activity class, symbol given only if active); below 0.1 µM against CDC7 (CDC7 IC50 value, compounds in Table 1).

For `O=C(NCc1ccccc1)C1CCN(Cc2nc3c(oc4ccc(Br)cc43)c(=O)[nH]2)C1` (stereo not drawn) [Compound 266, 1-[(8-bromo-4-oxo-3,4-dihydro[1]benzofuro[3,2-d]pyrimidin-2-yl)methyl]-N-(phenylmethyl)pyrrolidine-3-carboxamide], the IC50 on CK2 and at CDC7 (setting [2]) was below 10 µM in each case.
